Tested on: human hepatocytes cultured in human plasma medium
Format: cell-based

COc1cc2c(c3oc(=O)c4c(c13)CCC4=O)[C@@H]1C=CO[C@@H]1O2 [Aflatoxin B1]
UC50 value after day 10 treatment relative to 2-day treatment (fold lower): 19 ×
cytotoxicity to human hepatocytes: cytotoxic

Source: US20190218588A1, “NOVEL CELL CULTURE METHOD, CELL CULTURE SYSTEM AND USES THEREOF” (priority 2016, published 2019)
